Experimental data from US20240190865A1, “T-TYPE CALCIUM CHANNEL ANTAGONISTS AND USES THEREOF” (THE BOARD OF TRUSTEES OF THE LELAND STANFORD JUNIOR …, priority 2021, published 2024).
Entries after “also recorded” stand apart in the source; their conditions may differ. Read-outs that look alike come from different tables or passages of the source.

Key:
Cav3.2 = Cav3.2 (Homo sapiens (Human), UniProt O95180); assay: In vitro patch clamp assay (SyncroPatch 384PE); format: cell-based; settings: HEK293 cells
Method in brief: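 Whole-cell patch clamp on HEK293 cells kept under G418 selection, run on the automated SyncroPatch 384PE. Cells were detached with Accutase, allowed 10 min recovery at 37 °C, and resuspended in HB-PS extracellular buffer before membrane currents were recorded.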

[1] = In vivo pharmacokinetics in dogs; settings: dog, plasma; male beagle dogs, 1 mg/kg IV and 3 mg/kg PO; read-out: oral bioavailability (F)
Protocol: In vivo experiments were performed in dogs to evaluate certain calcium channel antagonists of the present disclosure. For instance, Example 15 was evaluated in adult male non-naïve beagle dogs (N=6), 8-10 kg, at 1 mg/kg IV and 3 mg/kg PO. The dogs were given free access to food and water for the IV group, were fasted overnight and fed 4 hr post-dosing for the PO group. The IV group was administered Example 15 via cephalic vein injection. The PO group was administered 3 mg/kg Example 15 by oral gavage. Dosing formulations were prepared at 1 mg/mL in 5% dimethylacetamide, 5% Solutol HS 15, 90% saline prior to use.
Blood collection: The animals were restrained manually, and approximately 0.5 mL blood/time point was collected via cephalic vein into pre-cold EDTA-K2 tubes. Blood samples were chilled on wet ice until centrifuged at 4° C. to obtain plasma within 15 minutes of sample collection.

Miro1 = assay: Rescue of Miro1 deficit in P301L tau donor fibroblasts (FCCP challenge, Miro1 immunocytochemistry); format: cell-based, human
Protocol: The compound of Example 15 rescued Miro1 deficit in P301L tau donor at risk for developing frontotemporal dementia (FTD). Method: A fibroblast was obtained from a non-symptomatic at risk carrier of the pathogenic P301L mutation in the MAPT/Tau gene, a highly penetrant risk factor for frontotemporal dementia (FTD). NINDS line ID: ND32956, collected from a person. Fibroblasts were seeded into 96-well assay plates. After 24 hours, cells were pre-treated with either vehicle (DMSO) or a dose-response of Example 15 compound. After 6 hrs of pre-treatment, cells were challenged with the mitochondrial stressor FCCP for 14 hours. After 14 hours of challenge, cells were fixed in paraformaldehyde and a standard immunocytochemistry protocol was followed to stain for Miro1 using a specific antibody. Images were acquired on the Yokogawa CQ1 confocal high-content imaging platform and the signal from the Miro1 antibody was quantified. Average Miro1 signal intensity was quantified from ˜400 cells/condition.
Similar to the method illustrated in Example 64, a Miro1 ratio could be calculated based on the Miro1 level after treatment of fibroblasts with FCCP compared with a control Miro1 level measured from fibroblasts that were not treated.

[2] = In vivo pharmacokinetics in rats; parameters: species or system Sprague-Dawley rats
Protocol: Fasted male Sprague-Dawley rats between 6 to 8 weeks of age were dosed with calcium channel antagonists of the present disclosure to evaluate in vivo pharmacokinetics. Each compound was formulated in 5% DMAC+5% Solutol HS15+90% Saline to yield a solution for dosing. The rats were dosed intravenously (IV) at 1 mg/kg (1 mL/kg) via foot dorsal vein (N=3) or orally (PO) at 10 mg/kg (10 mL/kg) via oral gavage (N=3).
Blood collection: The animals were restrained manually, and approximately 200 μL blood/time point was collected into pre-cooled EDTA-K2 tubes via jugular vein and put on wet ice. The blood sample was centrifuged at 4° C. (2000 g, 5 min) to obtain plasma within 15 min after sample collection. The plasma samples were stored at approximately −70° C. until analysis.

[3] = Brain penetration in mice; format: in vivo; settings: male C57BL/6 mice; for concentration at 4 h: mouse, brain, 4 hours post-dose
Protocol: Male C57BL/6 mice at 6-8 weeks were dosed once with Example 15 in two experiments (N=3 per timepoint) at 1 mg/kg IV or 10 mg/kg PO, and then compound concentration was measured at various times up to 24 hours. Dosing solutions were prepared of Example 15 in 0.2 mg/mL (IV) or 1 mg/mL (PO) in 5% dimethylacetamide, 5% Solutol HS 15, 90% saline solution prior to use. Compound was administered either IV by tail vein injection or PO by oral gavage.
Blood collection: The animal was restrained manually at the designated time points, approximately 110 μL of blood sample was collected via facial vein into K2EDTA tubes. Blood sample was put on ice and centrifuged at 2000 g for 5 mins to obtain plasma sample within 15 minutes.
Brain collection: After the blood collection, the animals were euthanized via CO2. The whole brain was collected, rinsed with cold saline, dried on filtrate paper, weighed, and snap frozen by placing into dry-ice.
The brain penetrance of Example 15 was calculated using mouse plasma/brain PK and relative mouse plasma and brain homogenate binding. […] For instance, at 4 hours post-dose: Example 15 brain concentration>100 ng/mL (IV); Example 15 brain concentration>1000 ng/mL (PO).

[4] = rat, compared to Example 16 of U.S. Pat. No. 7,875,636
[5] = rat, plasma, male Sprague-Dawley rats, 1 mg/kg IV, read-out: Mean (ng/mL) after 1 mg/kg IV dose
[6] = rat, plasma, male Sprague-Dawley rats, 10 mg/kg PO, read-out: Mean (ng/mL) after 10 mg/kg PO dose

Cav3.2, sequence (O95180 whole entry): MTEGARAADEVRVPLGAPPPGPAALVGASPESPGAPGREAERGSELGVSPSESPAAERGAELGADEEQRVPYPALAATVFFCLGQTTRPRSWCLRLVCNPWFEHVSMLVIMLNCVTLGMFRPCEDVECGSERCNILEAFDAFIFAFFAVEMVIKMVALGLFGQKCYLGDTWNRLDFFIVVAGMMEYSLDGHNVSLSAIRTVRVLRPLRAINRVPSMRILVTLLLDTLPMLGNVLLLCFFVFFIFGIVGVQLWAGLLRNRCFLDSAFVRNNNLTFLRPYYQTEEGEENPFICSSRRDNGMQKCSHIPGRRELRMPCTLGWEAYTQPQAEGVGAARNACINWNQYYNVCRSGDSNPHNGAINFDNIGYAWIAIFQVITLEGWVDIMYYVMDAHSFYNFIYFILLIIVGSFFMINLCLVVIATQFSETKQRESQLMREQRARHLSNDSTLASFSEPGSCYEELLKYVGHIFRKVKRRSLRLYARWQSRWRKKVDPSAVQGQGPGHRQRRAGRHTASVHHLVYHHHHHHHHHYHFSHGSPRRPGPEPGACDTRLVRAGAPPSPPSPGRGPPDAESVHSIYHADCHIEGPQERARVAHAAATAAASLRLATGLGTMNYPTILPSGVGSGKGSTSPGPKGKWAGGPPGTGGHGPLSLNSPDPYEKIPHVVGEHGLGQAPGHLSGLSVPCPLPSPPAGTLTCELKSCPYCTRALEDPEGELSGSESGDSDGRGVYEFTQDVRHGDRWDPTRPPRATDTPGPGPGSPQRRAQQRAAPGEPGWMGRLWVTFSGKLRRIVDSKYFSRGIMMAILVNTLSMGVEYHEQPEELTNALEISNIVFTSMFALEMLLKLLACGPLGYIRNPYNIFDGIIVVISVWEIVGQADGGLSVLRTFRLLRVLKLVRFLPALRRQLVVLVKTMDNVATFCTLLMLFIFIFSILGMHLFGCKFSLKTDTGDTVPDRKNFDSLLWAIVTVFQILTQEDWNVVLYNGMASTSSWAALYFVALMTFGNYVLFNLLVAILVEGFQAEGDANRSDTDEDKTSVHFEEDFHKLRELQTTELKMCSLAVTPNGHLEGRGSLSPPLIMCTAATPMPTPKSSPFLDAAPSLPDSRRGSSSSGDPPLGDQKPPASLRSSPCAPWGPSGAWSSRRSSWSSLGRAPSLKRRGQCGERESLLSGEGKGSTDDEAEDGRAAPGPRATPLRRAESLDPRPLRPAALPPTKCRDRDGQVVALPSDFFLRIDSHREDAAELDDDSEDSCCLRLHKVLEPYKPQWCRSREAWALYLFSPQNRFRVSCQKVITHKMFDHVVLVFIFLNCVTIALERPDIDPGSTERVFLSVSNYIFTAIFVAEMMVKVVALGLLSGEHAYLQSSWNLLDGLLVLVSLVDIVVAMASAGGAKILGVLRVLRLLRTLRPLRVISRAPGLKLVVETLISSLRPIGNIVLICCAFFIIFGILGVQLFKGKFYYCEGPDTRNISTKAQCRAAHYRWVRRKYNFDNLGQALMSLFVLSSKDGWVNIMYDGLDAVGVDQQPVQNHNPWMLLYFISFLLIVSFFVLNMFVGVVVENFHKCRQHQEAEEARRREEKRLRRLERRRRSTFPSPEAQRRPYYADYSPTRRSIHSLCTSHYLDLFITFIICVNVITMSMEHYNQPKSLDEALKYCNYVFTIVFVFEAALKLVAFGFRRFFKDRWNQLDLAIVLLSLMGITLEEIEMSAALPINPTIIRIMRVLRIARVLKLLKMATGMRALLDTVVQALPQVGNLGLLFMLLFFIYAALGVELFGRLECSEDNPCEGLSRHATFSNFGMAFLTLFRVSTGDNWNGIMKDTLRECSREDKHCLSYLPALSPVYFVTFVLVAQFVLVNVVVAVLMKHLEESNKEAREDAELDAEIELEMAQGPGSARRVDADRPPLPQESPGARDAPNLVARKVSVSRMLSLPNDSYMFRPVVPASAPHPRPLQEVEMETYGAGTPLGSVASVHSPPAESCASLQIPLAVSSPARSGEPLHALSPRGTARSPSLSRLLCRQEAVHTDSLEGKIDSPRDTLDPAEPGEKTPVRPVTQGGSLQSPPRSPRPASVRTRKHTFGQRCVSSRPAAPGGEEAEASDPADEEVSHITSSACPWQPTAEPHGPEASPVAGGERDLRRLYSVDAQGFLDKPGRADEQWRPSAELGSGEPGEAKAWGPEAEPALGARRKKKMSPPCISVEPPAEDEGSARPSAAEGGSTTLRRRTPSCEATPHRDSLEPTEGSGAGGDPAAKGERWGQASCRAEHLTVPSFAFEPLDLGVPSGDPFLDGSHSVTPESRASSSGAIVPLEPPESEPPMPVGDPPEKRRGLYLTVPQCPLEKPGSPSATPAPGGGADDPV

IC50 (Cav3.2): 0.163 µM
bioavailability [1]: > 50%
Mean (ng/mL) after 1 mg/kg IV dose ([2]; male Sprague-Dawley rats, 1 mg/kg IV, 24 hr, BQL = below quantitation level): BQL
AUC [2, 4]: higher
Cmax [2, 4]: higher
half-life (t1/2) [2, 4]: about two-fold higher
concentration at 0.25 h [2, 5]: 890 ng/mL
concentration at 0.5 h [2, 5]: 764 ng/mL
concentration at 1 h [2, 5]: 621 ng/mL
concentration at 2 h [2, 5]: 423 ng/mL
concentration at 4 h [2, 5]: 193 ng/mL
concentration at 8 h [2, 5]: 26.3 ng/mL
concentration at 12 h [2, 5]: 4.42 ng/mL
concentration at 0.25 h [2, 6]: 4110 ng/mL
concentration at 0.5 h [2, 6]: 4510 ng/mL
concentration at 1 h [2, 6]: 4710 ng/mL
concentration at 2 h [2, 6]: 5440 ng/mL
concentration at 4 h [2, 6]: 4070 ng/mL
concentration at 8 h [2, 6]: 1240 ng/mL
concentration at 12 h [2, 6]: 329 ng/mL
concentration at 24 h ([2]; rat, plasma, male Sprague-Dawley rats, 10 mg/kg PO, 24 hr, read-out: Mean (ng/mL) after 10 mg/kg PO dose): 2.49 ng/mL
brain penetration ([3]; IV and PO experiments): measurable brain penetration
concentration at 4 h ([3]; 1 mg/kg IV): > 100 ng/mL
concentration at 4 h ([3]; 10 mg/kg PO): > 1000 ng/mL
SMILES: C[C@@H](NC(=O)Cc1ccc(C(F)(F)F)cc1)c1cc2cnn(CC(F)(F)F)c2cn1 [Example 15, (R)—N-(1-(1-(2,2,2-trifluoroethyl)-1H-pyrazolo[3,4-c]pyridin-5-yl)ethyl)-2-(4-(trifluoromethyl)phenyl)acetamide]
rescue of Miro1 deficit (Miro1; P301L tau donor fibroblasts in response to FCCP): completely rescued Miro1 reduction deficit; also recorded: dose-dependent rescue of Miro1 deficit
IC50 (Miro1; P301L tau donor fibroblasts, 6 hrs pre-treatment, FCCP 14 hours, read-out: IC50, rescue of Miro1 reduction deficit): 0.584 µM
